Results on 9 molecules are retold here after PubChem BioAssay (NCI).

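Where inhibition never reached the appropriate level, the endpoint shown equals the highest concentration tested. Otherwise, values were interpolated linearly from a five-concentration, 48-hour dose response in 96-well plates. GI50 is the concentration that inhibits growth by half. TGI: concentration producing complete growth inhibition.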

Among the test systems are CCRF-CEM leukemia; HCT-15 colon; HT29 colon; MALME-3M melanoma; MOLT-4 leukemia; NCI-H522 lung; OVCAR-5 ovarian; OVCAR-4 ovarian; SK-MEL-5 melanoma; U251 CNS.
Holding throughout (experiment): NCI anticancer screen, dose series, 48 h

With `Cc1ccc(-c2cc(-c3ccco3)c(C#N)c(=O)n2C2OC(OC(=O)c3ccccc3)C(OC(=O)c3ccccc3)C2OC(=O)c2ccccc2)cc1` (stereo unspecified), the TGI with CCRF-CEM leukemia, with HCT-15 colon, in the assay with HT29 colon, in the assay on MALME-3M melanoma, in the assay with MOLT-4 leukemia and in the assay with NCI-H522 lung was over 100 µM in each case. Also, in the assay on OVCAR-5 ovarian, the TGI is over 100 µM.

As for `O=c1cccc(C2CC(CO)C3CCCCN3C2)[nH]1` (stereo unspecified), the TGI in the assay on CCRF-CEM leukemia, in the assay with HCT-15 colon, with HT29 colon, in the assay on MOLT-4 leukemia, in the assay with NCI-H522 lung and in the assay on OVCAR-4 ovarian was over 100 µM in each case. Also, the TGI in the assay on OVCAR-5 ovarian, in the assay on SK-MEL-5 melanoma and in the assay on U251 CNS was over 100 µM throughout.

As to `O=C(N/N=C(/CCN1CCCC1)CC(c1ccccc1)c1c(O)c2ccccc2oc1=O)c1ccncc1` (stereo unspecified), the TGI in the assay with CCRF-CEM leukemia, in the assay on HCT-15 colon, in the assay with HT29 colon, in the assay on MALME-3M melanoma, in the assay with NCI-H522 lung and with OVCAR-4 ovarian was over 100 µM throughout. The TGI in the assay on OVCAR-5 ovarian, in the assay with SK-MEL-5 melanoma and in the assay with U251 CNS was over 100 µM in each case.

In the case of `CCOC(=O)/C=C/C1=C(c2cccs2)c2ccccc2CC1`, the GI50 is 27.3 µM in the assay on CCRF-CEM leukemia; 16.5 µM in the assay on HCT-15 colon; 24.4 µM in the assay on HT29 colon; 24.8 µM in the assay on MALME-3M melanoma; 24.3 µM in the assay on NCI-H522 lung; 38.9 µM with OVCAR-4 ovarian. Also, the GI50 with OVCAR-5 ovarian is 35.9 µM; in the assay on SK-MEL-5 melanoma it was 16.8 µM; in the assay with U251 CNS, 19.7 µM. The TGI with CCRF-CEM leukemia is 73.1 µM; in the assay with HCT-15 colon, 34 µM; in the assay with HT29 colon it was 65.3 µM; in the assay on MALME-3M melanoma, 69.7 µM; with NCI-H522 lung, 63.6 µM; in the assay with OVCAR-4 ovarian it was over 100 µM. The values for the TGI in the assay with OVCAR-5 ovarian, in the assay with SK-MEL-5 melanoma and with U251 CNS were over 100 µM, 31.8 µM and 39.6 µM, respectively.

`CN1CC[C@]2(C)c3ccc(O)cc3CC3CCCC1C32C` (stereo partly specified): the TGI with CCRF-CEM leukemia, in the assay with HCT-15 colon, in the assay with HT29 colon, with MALME-3M melanoma, in the assay on MOLT-4 leukemia and with NCI-H522 lung was over 100 µM in each case. The TGI in the assay on OVCAR-5 ovarian, in the assay with SK-MEL-5 melanoma and in the assay with U251 CNS was over 100 µM throughout.

Turning to `CCCCN(CCCC)c1c([N+](=O)[O-])c(=O)nc2ccccn12`, the TGI in the assay on CCRF-CEM leukemia is over 100 µM; in the assay on HCT-15 colon, over 100 µM; in the assay on HT29 colon, over 100 µM; in the assay on MALME-3M melanoma it was over 100 µM; in the assay on MOLT-4 leukemia it was over 100 µM; in the assay with NCI-H522 lung, 36.4 µM. The TGI with OVCAR-5 ovarian, with SK-MEL-5 melanoma and in the assay on U251 CNS was over 100 µM throughout.

Consider `CN(C)CC1CCC/C1=N\O` (stereo unspecified), for which the TGI with CCRF-CEM leukemia, in the assay on HCT-15 colon, in the assay on HT29 colon, in the assay with MOLT-4 leukemia, with NCI-H522 lung and in the assay with OVCAR-4 ovarian was over 100 µM throughout. In addition, the TGI in the assay with OVCAR-5 ovarian, in the assay on SK-MEL-5 melanoma and with U251 CNS was over 100 µM throughout.

As to `O=C1NC(=S)S/C1=C(/C=C(\CC(=O)c1ccccc1)c1ccc(Cl)cc1)c1ccccc1`, the GI50 was 24.7 µM with CCRF-CEM leukemia; 15.8 µM with HCT-15 colon; 39.9 µM in the assay with MALME-3M melanoma; 19.5 µM in the assay on MOLT-4 leukemia; 17.9 µM with NCI-H522 lung; 44.9 µM with OVCAR-4 ovarian. Besides, the GI50 was 65.4 µM in the assay with OVCAR-5 ovarian, 19.1 µM in the assay on SK-MEL-5 melanoma and 30.9 µM in the assay with U251 CNS. Besides, the TGI in the assay on CCRF-CEM leukemia is 73.7 µM; in the assay on HCT-15 colon, 39.4 µM; in the assay on MALME-3M melanoma it was over 100 µM; in the assay with MOLT-4 leukemia it was 51.6 µM; with NCI-H522 lung, 44.9 µM; with OVCAR-4 ovarian, over 100 µM. The results for the TGI in the assay with OVCAR-5 ovarian, with SK-MEL-5 melanoma and with U251 CNS were over 100 µM, 34.3 µM and over 100 µM, respectively.

As for `Nc1ccccc1C#C/C=C\C#Cc1ccccc1`, the GI50 with CCRF-CEM leukemia is 0.804 µM; in the assay on HCT-15 colon, 26.2 µM; in the assay on HT29 colon, 21.1 µM; in the assay on MOLT-4 leukemia it was 13.3 µM; in the assay on NCI-H522 lung, 4.72 µM; with OVCAR-4 ovarian, 12.1 µM. Also, the GI50 is 15.5 µM in the assay with OVCAR-5 ovarian, 5 µM with SK-MEL-5 melanoma and 19.2 µM in the assay on U251 CNS. Also, the TGI is 29.9 µM in the assay on CCRF-CEM leukemia; 92.3 µM with HCT-15 colon; 44.8 µM in the assay on HT29 colon; over 100 µM in the assay with MOLT-4 leukemia; 20.5 µM with NCI-H522 lung; 32.4 µM in the assay on OVCAR-4 ovarian. Further, the figures for the TGI in the assay with OVCAR-5 ovarian, in the assay with SK-MEL-5 melanoma and with U251 CNS were 51.6 µM, 18.5 µM and 46.9 µM, respectively.
